The text below walks through data of patent US9174997B2, “4-(4-cyano-2-thioaryl)dihydropyrimidinones and use thereof” (Bayer Intellectual Property GmbH, priority 2007, dated 2015).

The structures appear in SMILES notation.

Sequence of human neutrophil elastase (HNE) (P08246 30-267): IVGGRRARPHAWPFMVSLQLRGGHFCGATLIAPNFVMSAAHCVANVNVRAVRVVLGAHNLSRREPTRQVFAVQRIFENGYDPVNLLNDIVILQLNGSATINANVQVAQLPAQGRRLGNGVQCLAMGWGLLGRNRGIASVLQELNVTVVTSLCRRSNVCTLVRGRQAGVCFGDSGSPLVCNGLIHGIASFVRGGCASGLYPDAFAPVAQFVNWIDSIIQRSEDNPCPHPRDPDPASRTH

The target in the first data set is human neutrophil elastase (HNE) (Homo sapiens (Human), UniProt P08246). Nature of the data set: In vitro HNE inhibition assay. Type of data set: biochemical. Conditions: HNE concentration of 80 pM; substrate MeOSuc-Ala-Ala-Pro-Val-AMC; 37° C. for 2 hours. On the procedure:
B-1. In Vitro HNE Inhibition Assay
The potency of the compounds of the invention is ascertained in an in vitro inhibition assay. The HNE-mediated amidolytic cleavage of a suitable peptide substrate leads in this connection to an increase in the fluorescent light. The signal intensity of the fluorescent light is directly proportional to the enzyme activity.
Enzyme ([…]; from Serva, Heidelberg) and substrate (20 μM MeOSuc-Ala-Ala-Pro-Val-AMC; from Bachem, Weil am Rhein) are incubated in an assay volume of in total 50 μl of assay buffer (0.1 M HEPES pH 7.4, 0.5 M NaCl, 0.1% w/v BSA, 1% v/v DMSO) in a 384-well microtiter plate in the presence and absence of the test substance at 37° C. for 2 hours. […] The IC50 values are determined by plotting the intensity of the fluorescent light against the active substance concentration.
In the case of `CC1=C(C#N)[C@@H](c2ccc(C#N)cc2S(=O)(=O)c2ccccc2)NC(=O)N1c1cccc(C(F)(F)F)c1` [Example 141, (4S)-4-{4-Cyano-2-[phenylsulfonyl]phenyl}-6-methyl-2-oxo-1-[3-(trifluoromethyl)phenyl]-1,2,3,4-tetrahydropyrimidine-5-carbonitrile], the IC50 (commonly the midpoint of a concentration-inhibition curve) was under 300 pM. Same read-out and setting: in the case of `CC1=C(C#N)C(c2ccc(C#N)cc2S(=O)(=O)CCO)NC(=O)N1c1cccc(C(F)(F)F)c1` (racemic) [Example 132, (rac)-4-[4-Cyano-2-((2-hydroxyethyl)sulfonyl)phenyl]-6-methyl-2-oxo-1-[3-(trifluoromethyl)phenyl]-1,2,3,4-tetrahydropyrimidine-5-carbonitrile] it was 1100 pM; in that of `CC(=O)C1=C(C)N(c2cccc(C(F)(F)F)c2)C(=O)N[C@@H]1c1ccc(C#N)cc1S(C)(=O)=O` [Example 2, 4-{(4S)-5-Acetyl-6-methyl-2-oxo-1-[3-(trifluoromethyl)phenyl]-1,2,3,4-tetrahydropyrimidin-4-yl}-3-(methylsulfonyl)benzonitrile], 10000 pM; in that of `CC1=C(C#N)[C@@H](c2ccc(C#N)cc2S(C)(=O)=O)N(S(=O)(=O)c2cnn(C(F)F)c2C)C(=O)N1c1cccc(C(F)(F)F)c1` [Example 96], under 300 pM. On the same count and under the same terms, in the case of `CC1=C(C#N)[C@@H](c2ccc(C#N)cc2S(C)(=O)=O)N(S(=O)(=O)c2ccccc2C#N)C(=O)N1c1cccc(C(F)(F)F)c1` [Example 103] it was under 300 pM; in that of `CC1=C(C#N)[C@@H](c2ccc(C#N)cc2S(C)(=O)=O)N(C(=O)N2CCN(c3ccccn3)CC2)C(=O)N1c1cccc(C(F)(F)F)c1` [Example 69], 900 pM; in that of `CC1=C(C#N)[C@@H](c2ccc(C#N)cc2S(C)(=O)=O)N(C(=O)N2CC[C@H](O)C2)C(=O)N1c1cccc(C(F)(F)F)c1` [Example 18, (4S)-4-[4-Cyano-2-(methylsulfonyl)phenyl]-3-{[(3S)-3-hydroxypyrrolidin-1-yl]carbonyl}-6-methyl-2-oxo-1-[3-(trifluoromethyl)phenyl]-1,2,3,4-tetrahydropyrimidine-5-carbonitrile], under 300 pM.

The subject of another data set is rat hepatocytes. Nature of the data set: Hepatocyte assay to determine the metabolic stability. Format: in vitro ADME. To be noted: after incubation with rat hepatocytes. On the procedure:
B-6. Hepatocyte Assay to Determine the Metabolic Stability
The metabolic stability of test compounds in the presence of hepatocytes is determined by incubating the compounds with low concentrations (preferably below or around 1 μM) and with low cell counts (preferably 1*10^6 cells/ml) in order to ensure as far as possible linear kinetic conditions in the experiment. Seven samples of the incubation solution are taken in a fixed time pattern for the […] analysis in order to determine the half-life (i.e. the degradation) of the compound in each case. Various clearance parameters (CL) and Fmax values are calculated from this half-life (see below).
The Cl and Fmax values represent a measure of the phase 1 and phase 2 metabolism of the compounds in the hepatocytes. In order to minimize the influence of the organic solvent on the enzymes in the incubation mixtures, this concentration is generally limited to 1% (acetonitrile) or 0.1% (DMSO).
A cell count for hepatocytes in the liver of 1.1*10^8 cells/g of liver is used for calculation for all species and breeds.
The calculated parameters and their meaning are:
Representative values for the compounds according to the invention from this assay after incubation of the compounds with rat hepatocytes are shown in Table B below: […]
In the case of `CN1CC2=C(C1=O)C(c1ccc(C#N)cc1S(C)(=O)=O)N(C(=O)NCCO)C(=O)N2c1cccc(C(F)(F)F)c1` (racemic) [Example 38, (rac)-4-[4-Cyano-2-(methylsulfonyl)phenyl]-N-(2-hydroxyethyl)-6-methyl-2,5-dioxo-1-[3-(trifluoromethyl)phenyl]-1,2,4,5,6,7-hexahydro-3H-pyrrolo[3,4-d]pyrimidine-3-carboxamide], the “CLblood, calculated blood clearance (well stirred model)” value (“CLblood, calculated blood clearance” for short) is 3.3 mL/min/kg and the “Fmax, maximum possible bioavailability after oral administration (well-stirred)” value (“Fmax, maximum possible bioavailability” below) was found to be 96%.

For `CN1CC2=C(C1=O)[C@@H](c1ccc(C#N)cc1S(C)(=O)=O)N(C)C(=O)N2c1cccc(C(F)(F)F)c1` [Example 123, 4-(4S)-3,6-Dimethyl-2,5-dioxo-1-[3-(trifluoromethyl)phenyl]-2,3,4,5,6,7-hexahydro-1 H-pyrrolo[3,4-d]pyrimidin-4-yl-3-(methylsulfonyl)benzonitrile], the “CLblood, calculated blood clearance” value is 16.7 mL/min/kg and the “Fmax, maximum possible bioavailability” value worked out at 75%. In the same order, the values of `CC1=C(C#N)[C@@H](c2ccc(C#N)cc2S(C)(=O)=O)N(C)C(=O)N1c1cccc(C(F)(F)F)c1` [Example 33, (4S)-4-[4-Cyano-2-(methylsulfonyl)phenyl]-3,6-dimethyl-2-oxo-1-[3-(trifluoromethyl)phenyl]-1,2,3,4-tetrahydropyrimidine-5-carbonitrile] are 10 mL/min/kg and 87%. The corresponding values for `CCS(=O)(=O)N1C(=O)N(c2cccc(C(F)(F)F)c2)C(C)=C(C#N)[C@H]1c1ccc(C#N)cc1S(C)(=O)=O` [Example 31, (4S)-4-[4-Cyano-2-(methylsulfonyl)phenyl]-6-methyl-3-(ethylsulfonyl)-2-oxo-1-[3-(trifluoromethyl)phenyl]-1,2,3,4-tetrahydropyrimidine-5-carbonitrile] are 6.7 mL/min/kg and 91%.

With `CC1=C(C(N)=O)[C@@H](c2ccc(C#N)cc2S(C)(=O)=O)NC(=O)N1c1cccc(C(F)(F)F)c1` [Example 5, (4S)-4-[4-Cyano-2-(methylsulfonyl)phenyl]-6-methyl-2-oxo-1-[3-(trifluoromethyl)phenyl]-1,2,3,4-tetrahydropyrimidine-5-carboxamide], the “CLblood, calculated blood clearance” value is 0 mL/min/kg and the “Fmax, maximum possible bioavailability” value stood at 100%. The corresponding values for `CCS(=O)(=O)c1cc(C#N)ccc1[C@@H]1C(C#N)=C(C)N(c2cccc(C(F)(F)F)c2)C(=O)N1S(C)(=O)=O` [Example 129, (4S)-4-[4-Cyano-2-(ethylsulfonyl)phenyl]-6-methyl-3-(methylsulfonyl)-2-oxo-1-[3-(trifluoromethyl)phenyl]-1,2,3,4-tetrahydropyrimidine-5-carbonitrile] are 15 mL/min/kg and 79%. In the same order, the values of `CCS(=O)(=O)c1cc(C#N)ccc1[C@H]1NC(=O)N(c2cccc(C(F)(F)F)c2)C(C)=C1C#N` [Example 127, (4S)-4-[4-Cyano-2-(ethylsulfonyl)phenyl]-6-methyl-2-oxo-1-[3-(trifluoromethyl)phenyl]-1,2,3,4-tetrahydropyrimidine-5-carbonitrile] are 3.3 mL/min/kg and 94%.

For the molecule `CC1=C(C#N)[C@@H](c2ccc(C#N)cc2S(C)(=O)=O)N(c2cccc(C(F)(F)F)c2)C(=O)N1c1cccc(C(F)(F)F)c1` [Example 118, (4S)-4-[4-Cyano-2-(methylsulfonyl)phenyl]-6-methyl-2-oxo-1,3-bis[3-(trifluoromethyl)phenyl]-1,2,3,4-tetrahydropyrimidine-5-carbonitrile], the “CLblood, calculated blood clearance” value was 10 mL/min/kg and the “Fmax, maximum possible bioavailability” value is recorded as 86%. As to `CC1=C(C#N)[C@@H](c2ccc(C#N)cc2S(C)(=O)=O)N(S(=O)(=O)c2cn(C)c(C)n2)C(=O)N1c1cccc(C(F)(F)F)c1` [Example 92], the “CLblood, calculated blood clearance” value is 12 mL/min/kg and the “Fmax, maximum possible bioavailability” value amounted to 83%. `CC1=C(C#N)[C@@H](c2ccc(C#N)cc2S(C)(=O)=O)N(c2ccc(C#N)cc2)C(=O)N1c1cccc(C(F)(F)F)c1` [Example 117, (4S)-4-[4-Cyano-2-(methylsulfonyl)phenyl]-3-(4-cyanophenyl)-6-methyl-2-oxo-1-[3-(trifluoromethyl)phenyl]-1,2,3,4-tetrahydropyrimidine-5-carbonitrile]: the “CLblood, calculated blood clearance” value was 1.7 mL/min/kg and the “Fmax, maximum possible bioavailability” value turned out to be 97%. In the same order, the values of `CC1=C(C#N)[C@@H](c2ccc(C#N)cc2S(C)(=O)=O)N(CC(=O)N2CCNC(=O)C2)C(=O)N1c1cccc(C(F)(F)F)c1` [Example 25, (4S)-4-[4-Cyano-2-(methylsulfonyl)phenyl]-6-methyl-2-oxo-3-[2-oxo-2-(3-oxopiperazin-1-yl)ethyl]-1-[3-(trifluoromethyl)phenyl]-1,2,3,4-tetrahydropyrimidine-5-carbonitrile] are 5 mL/min/kg and 93%. In the same order, the values of `CC1=C(C#N)[C@@H](c2ccc(C#N)cc2S(C)(=O)=O)NC(=O)N1c1cccc(C(F)(F)F)c1` [Example 6, (4S)-4-[4-Cyano-2-(methylsulfonyl)phenyl]-6-methyl-2-oxo-1-[3-(trifluoromethyl)phenyl]-1,2,3,4-tetrahydropyrimidine-5-carbonitrile] are 3.3 mL/min/kg and 96%. The corresponding values for `CC1=C(C#N)[C@@H](c2ccc(C#N)cc2S(C)(=O)=O)N(S(=O)(=O)c2ccccc2OC(F)(F)F)C(=O)N1c1cccc(C(F)(F)F)c1` [Example 29, (4S)-4-[4-Cyano-2-(methylsulfonyl)phenyl]-6-methyl-3-{[2-(trifluoromethoxy)phenyl]sulfonyl}-2-oxo-1-[3-(trifluoromethyl)phenyl]-1,2,3,4-tetrahydropyrimidine-5-carbonitrile] are 6.7 mL/min/kg and 90%.
